In patent US6849602B1 (The Regents of the University of California, priority 1996, dated 2005):
“Also recorded” adds a separate entry of the source. No end group written: not given here.

Assays:
Chung model rats = experiment: Tactile allodynia (von Frey, 50% paw withdrawal threshold) after bolus intrathecal injection in Chung model rats; format: in vivo, rat; details: for activity in alleviating neuropathic pain as assayed using Chung rats: summary statement
Experimental: Each of the three peptides were obtained in pure form by chemical synthesis, dissolved in sterile PBS and buffered to a neutral pH.
The surgical procedure previously described by Kim and Chung, supra (1992) was performed on male Sprague-Dawley rats weighing 120 to 150 grams to induce an allodynic state. Briefly, the rats were anesthetized with halothane; subsequently, the left L-5 and L-6 spinal nerves were isolated adjacent to the vertebral column and ligated with 6.0 silk suture distal to the dorsal root ganglion.
After a ten to fourteen day post operative recovery period, a spinal catheter was introduced. Five days following the second surgery, intrathecal drug administration was accomplished using a gear driven micro-injection syringe connected to a spinal catheter inserted through the foramen magnum. Prior to testing, the rats were placed in clear plastic wire meshed cages and allowed to acclimate.
To assess the 50% mechanical threshold for paw withdrawal, a von Frey hair was applied to the hind foot avoiding the foot pad. Each of the von Frey hairs, which are calibrated to bend at increasing log forces, were pressed perpendicularly to the foot with sufficient force to cause slight bending for a duration of approximately six to eight seconds. A positive response was noted if the foot was sharply withdrawn. Six data points were collected for each point with the maximum and minimum stimulus noted for each time point. The resulting pattern of the responses was tabulated, and the 50% response threshold was computed. The graph gives the response to the indicated dosage of peptide given as a single intrathecal bolus injection. The X-axis indicates the time after the injection at which point the hypersensitivity to pressure on the foot pad was measured.

neuroblastoma cells [1] = experiment: Neurotrophic activity (neurite outgrowth, choline acetyltransferase, cell death); format: cell-based
taxol-treated mice = experiment: Loss of thermal sensation (Hargreaves) in taxol-treated mice; format: in vivo, mouse
Experimental: Mice were administered taxol in order to induce sensory neuropathy.
The loss of thermal sensation was measured using a Hargreaves sensory testing apparatus as an indicator of sensory neuropathy.

[2] = system: normal male Sprague Dawley rats; experiment: Hot plate response latency in normal rats after intrathecal injection; format: in vivo, rat; details: hot plate 52.5° C., up to 180 minutes after intrathecal injection
Experimental: Briefly, the period of time before the rat withdraws the affected foot from a source of heat is defined as the hot plate latency and is a measure of tolerance to pain caused by a heat stimulus.
An intrathecal catheter was placed into normal male Sprague Dawley rats. […] Rats were examined on the hot plate (52.5° C.); hot plate response latencies were measured prior to injection and at various time points up to 180 minutes after the injection.

neuroblastoma cells [3] = details: O'Brien et al.; cited from earlier work

Sequence: CEFLVKEVTKLIDDNKTEKEIL [SEQ ID NO:8]
- allodynic response (Chung model rats; injection of 17.5 μg): No change in the allodynic response
- activity in alleviating neuropathic pain as assayed using Chung rats (Chung model rats): inactive in alleviating neuropathic pain
- activity in alleviating neuropathic pain as assayed using Chung rats (Chung model rats; listed as SEQ ID NO8): lacks activity in alleviating neuropathic pain
- neurotrophic activity (neuroblastoma cells [1]): lacks neurotrophic activity

Sequence: CEFLVKEVTKLIDNNKTEKEIL [SEQ ID NO:1]
- duration of effect following administration (Chung model rats; FIG. 1): 3 h
- latest time point with significantly reduced allodynia (Chung model rats; highest dose, intrathecal): ≥ 180 min
- time after injection to significant effect (Chung model rats; intrathecal bolus): ≤ 15 min
- time of maximum (peak) effect post-injection (Chung model rats; intrathecal bolus): 120 min
- tactile allodynia (force threshold) (Chung model rats; intrathecal injection of 0.007 μg): no significant reduction in allodynia
- tactile allodynia (force threshold) (Chung model rats; intrathecal injection of 0.7 or 0.07 μg): suppressed allodynia in a dose-dependent fashion
- activity in alleviating neuropathic pain as assayed using Chung rats (Chung model rats): reduces the painful allodynia; also recorded: alleviate neuropathic pain
- loss of thermal sensation (taxol-treated mice; 100 μg/kg): the loss of thermal sensation was inhibited
- loss of thermal sensation (taxol-treated mice; similarly assayed, dose not stated): effective in inhibiting less of thermal sensation
- neurotrophic activity (neuroblastoma cells [1]): have neurotrophic activity
- hot plate response latency [2]: No significant elevation of the hot plate response latency
- cell death in neuroblastoma cells (neuroblastoma cells [3]): prevents cell death in neuroblastoma cells
- choline acetyltransferase activity (neuroblastoma cells [3]): stimulates
- neurite outgrowth (neuroblastoma cells [3]): stimulates neurite outgrowth

Sequence: LIDNNKTEKEIL [SEQ ID NO:3]
- neurotrophic activity (neuroblastoma cells [1]): active as a neurotrophic factor

Sequence: TKLIDNDKTEKEIL [SEQ ID NO:9, substitution of the second conserved asparagine residue]
- neurotrophic activity (neuroblastoma cells [1]): lacks neurotrophic activity

Sequence: TKSIDNNKTEKEIL [SEQ ID NO:10, substitution of the conserved leucine residue]
- neurotrophic activity (neuroblastoma cells [1]): lacks neurotrophic activity
